# US10308628B2, “Heterocyclic compounds and methods for their use” (NOVARTIS AG, priority 2015, dated 2019)
# pKi: −log10 of the molar value.
# Molecular target: human AT2 receptor (Homo sapiens (Human), UniProt P50052)
# Assay: AT2 receptor binding assay ([125I]CGP 42112A displacement, CHO-K1 cell membranes)
# Settings: membranes of CHO-K1 cells stably expressing human AT2 receptor; 0.05 nM [125I]CGP 42112A; Ki derived from IC50 by Cheng-Prussoff equation
# Experimental: Reagents were purchased from Sigma-Aldrich, unless otherwise specified. Dialyzed fetal bovine serum (FBS) was from Life Technologies (cat. no. 10073772). Valiscreen® human angiotensin AT2 receptor cell line (cat. no. ES-070-C), [^125I]CGP 42112A (cat. no. NEX324025UC) and MicroScint™ 40 (cat. no. 6013641) were purchased from PerkinElmer. CGP 42112A (cat. no. 2569) and PD 123,319 ditrifluoroacetate (cat. no. 1361) were from Tocris Biosciences.
# 6. […] Compound Preparation
# Compounds were prepared from 10 mM stock solutions in 100% DMSO. Dilutions were made using electronic multichannel pipettes.
# Controls • Total binding (high control) was determined in the absence of unlabelled ligand. A solution of 10% DMSO in assay buffer was prepared. • Non-specific binding (low control) was determined in the presence of a vast excess (10 μM) of PD 123,319. 1 mM stock solution of PD 123,319 in water was diluted […] with 10% DMSO in assay buffer.
# 15 μL compound solution was transferred to duplicate wells of assay plate. 5 compounds were tested per plate. 15 μL control solutions were transferred to columns 1 and 12 of assay plate.
# Chain of human AT2 receptor (P50052 whole entry): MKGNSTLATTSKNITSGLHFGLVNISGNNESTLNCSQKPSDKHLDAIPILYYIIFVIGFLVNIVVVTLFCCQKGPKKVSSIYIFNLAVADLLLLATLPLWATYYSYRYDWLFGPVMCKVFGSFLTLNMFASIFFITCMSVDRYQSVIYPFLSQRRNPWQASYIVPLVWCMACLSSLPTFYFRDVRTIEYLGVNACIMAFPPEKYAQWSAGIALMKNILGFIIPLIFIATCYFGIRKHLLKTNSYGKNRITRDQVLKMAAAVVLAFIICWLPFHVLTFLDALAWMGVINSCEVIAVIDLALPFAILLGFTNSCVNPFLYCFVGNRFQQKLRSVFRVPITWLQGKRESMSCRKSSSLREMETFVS
row,SMILES,pKi
1,"O=C(O)[C@@H]1C[C@H](N2CCCOc3cc(F)ccc32)CCN1C(=O)C(c1ccccc1)c1ccccc1 [Compound 2, (2S,4R)-1-(2,2-Diphenylacetyl)-4-(8-fluoro-3,4 dihydrobenzo[b][1,4]oxazepin-5(2H)-yl)piperidine-2-carboxylic acid]",8.05
2,"O=C(O)[C@@H]1C[C@H](N2CCCOc3ccc(F)cc32)CCN1C(=O)C(c1ccccc1)c1ccccc1 [Compound 3, (2S,4R)-1-(2,2-Diphenylacetyl)-4-(7-fluoro-3,4dihydrobenzo[b][1,4]oxazepin-5(2H)-yl)piperidine-2-carboxylic acid]",7.77
3,"O=C(O)[C@@H]1C[C@H](N2CCCOc3cc(F)c(F)cc32)CCN1C(=O)C(c1ccccc1)c1ccccc1 [Compound 1, (2S,4R)-4-(7,8-Difluoro-3,4-dihydrobenzo[b][1,4]oxazepin-5 (2H)-yl)-1-(2,2-diphenylacetyl)piperidine-2-carboxylic acid]",8.15

# Continued, values first:
row,pKi,SMILES
1,8.05,"COc1ccc2c(c1)CCCCN2[C@@H]1CCN(C(=O)C(c2ccccc2)c2ccccc2)[C@H](C(=O)O)C1 [Compound 5, (2S,4R)-1-(2,2-Diphenylacetyl)-4-(7-methoxy-2,3,4,5-tetrahydro-1H-benzo[b]azepin-1-yl)piperidine-2-carboxylic acid]"
2,7.82,"O=C(O)[C@@H]1C[C@H](N2CCCOc3ccccc32)CCN1C(=O)C(c1ccccc1)c1ccccc1 [Compound 4, (2S,4R)-4-(3,4-Dihydrobenzo[b][1,4]oxazepin-5(2H)-yl)-1-(2,2-diphenylacetyl)piperidine-2-carboxylic acid]"
